Measurements as given in ChEMBL document CHEMBL5620353, “Novel antifungal triazoles with alkynyl-methoxyl side chains: Design, synthesis, and biological activity evaluation” (Eur J Med Chem, 2023).
Values after ≈ are worked out from the molar mass of the structure shown.

Key:
Assay type in all cases: functional
Saccharomyces cerevisiae [1] = assay: Antifungal activity against recombinant Saccharomyces cerevisiae Y2462 overexpressing ScErg11 ScNcp1 assessed as inhibition of fungal growth incubated for 48 hrs by microbroth dilution method
Saccharomyces cerevisiae [2] = assay: Antifungal activity against recombinant Saccharomyces cerevisiae Y2374 overexpressing CgErg11 assessed as inhibition of fungal growth incubated for 48 hrs by microbroth dilution method
Nakaseomyces glabratus = assay: Antifungal activity against Candida glabrata 537 assessed as inhibition of fungal growth incubated for 48 hrs by microbroth dilution method
Saccharomyces cerevisiae [3] = assay: Antifungal activity against recombinant Saccharomyces cerevisiae Y2513 overexpressing ScErg11 Y140H assessed as inhibition of fungal growth incubated for 48 hrs by microbroth dilution method
[Candida] auris [4] = Antifungal activity against fluconazole-resistant Candida auris 919 assessed as inhibition of fungal growth incubated for 48 hrs by microbroth dilution method; conditions: Candidozyma auris
Saccharomyces cerevisiae [5] = assay: Antifungal activity against recombinant Saccharomyces cerevisiae Y2411 overexpressing ScErg11 assessed as inhibition of fungal growth incubated for 48 hrs by microbroth dilution method
Candida albicans [6] = assay: Antifungal activity against fluconazole-resistant Candida albicans 904 assessed as inhibition of fungal growth incubated for 48 hrs by microbroth dilution method
Saccharomyces cerevisiae [7] = assay: Antifungal activity against recombinant Saccharomyces cerevisiae Y2716 overexpressing CpErg11 Y132F CpCpr assessed as inhibition of fungal growth incubated for 48 hrs by microbroth dilution method
Candida albicans [8] = assay: Antifungal activity against Candida albicans 10231 assessed as inhibition of fungal growth incubated for 48 hrs by microbroth dilution method
Saccharomyces cerevisiae [9] = assay: Antifungal activity against recombinant Saccharomyces cerevisiae Y2459 overexpressing CaErg11 CaCpr assessed as inhibition of fungal growth incubated for 48 hrs by microbroth dilution method
Saccharomyces cerevisiae [10] = assay: Antifungal activity against recombinant Saccharomyces cerevisiae Y2300 overexpressing ScErg11 assessed as inhibition of fungal growth incubated for 48 hrs by microbroth dilution method
[Candida] auris [11] = Antifungal activity against fluconazole-resistant Candida auris 918 assessed as inhibition of fungal growth incubated for 48 hrs by microbroth dilution method; conditions: Candidozyma auris
Saccharomyces cerevisiae [12] = assay: Antifungal activity against recombinant Saccharomyces cerevisiae Y2301 overexpressing ScErg11 Y140F assessed as inhibition of fungal growth incubated for 48 hrs by microbroth dilution method
Aspergillus fumigatus = assay: Antifungal activity against Aspergillus fumigatus 7544 assessed as inhibition of fungal growth incubated for 72 hrs by microbroth dilution method
Candida parapsilosis = assay: Antifungal activity against Candida parapsilosis 22019 assessed as inhibition of fungal growth incubated for 48 hrs by microbroth dilution method; conditions: Lodderomyces parapsilosis
Saccharomyces cerevisiae [13] = assay: Antifungal activity against recombinant Saccharomyces cerevisiae Y2721 overexpressing CpErg11 CpCpr assessed as inhibition of fungal growth incubated for 48 hrs by microbroth dilution method
[Candida] auris [14] = Antifungal activity against fluconazole-resistant Candida auris 891 assessed as inhibition of fungal growth incubated for 48 hrs by microbroth dilution method; conditions: Candidozyma auris
Cryptococcus neoformans = assay: Antifungal activity against Cryptococcus neoformans 32,609 assessed as inhibition of fungal growth incubated for 72 hrs by microbroth dilution method
Saccharomyces cerevisiae [15] = assay: Antifungal activity against recombinant Saccharomyces cerevisiae Y525 overexpressing CaMdr1 assessed as inhibition of fungal growth incubated for 48 hrs by microbroth dilution method
Candida tropicalis = assay: Antifungal activity against Candida tropicalis 8915 assessed as inhibition of fungal growth incubated for 48 hrs by microbroth dilution method
Candida albicans [16] = assay: Antifungal activity against Candida albicans SC5314 assessed as inhibition of fungal growth incubated for 48 hrs by microbroth dilution method
Saccharomyces cerevisiae [17] = assay: Antifungal activity against recombinant Saccharomyces cerevisiae Y570 overexpressing CaCdr1 assessed as inhibition of fungal growth incubated for 48 hrs by microbroth dilution method
Pichia kudriavzevii = assay: Antifungal activity against Candida krusei 4996 assessed as inhibition of fungal growth incubated for 48 hrs by microbroth dilution method
Candida albicans [18] = assay: Antifungal activity against fluconazole-resistant Candida albicans 901 assessed as inhibition of fungal growth incubated for 48 hrs by microbroth dilution method

Work on C[C@@H](c1nc(-c2ccc(C#N)cc2)cs1)[C@](O)(Cn1cncn1)c1ccc(F)cc1F [RAVUCONAZOLE] yielded an MIC (Saccharomyces cerevisiae [1]) of 0.063 µg/mL, an MIC (Saccharomyces cerevisiae [2]) of 0.063 µg/mL and an MIC (Nakaseomyces glabratus) of no more than 0.125 µg/mL. For the same compound, the MIC (Saccharomyces cerevisiae [3]) was 0.016 µg/mL, the MIC ([Candida] auris [4]) was 1 µg/mL (≈ 2.29 µM) and the MIC (Saccharomyces cerevisiae [5]) was 0.008 µg/mL. The MIC (Candida albicans [6]) was 16 µg/mL (≈ 36.6 µM), the MIC (Saccharomyces cerevisiae [7]) was 0.031 µg/mL and the MIC (Candida albicans [8]) was 16 µg/mL (≈ 36.6 µM). It also gave an MIC (Saccharomyces cerevisiae [9]) of 0.016 µg/mL, an MIC (Saccharomyces cerevisiae [10]) of 0.063 µg/mL and an MIC ([Candida] auris [11]) of 1 µg/mL (≈ 2.29 µM). It also gave an MIC (Saccharomyces cerevisiae [12]) of 0.063 µg/mL, an MIC (Aspergillus fumigatus) of 0.25 µg/mL (≈ 0.571 µM) and an MIC (Candida parapsilosis) of no more than 0.125 µg/mL. The MIC (Saccharomyces cerevisiae [13]) was 0.031 µg/mL, the MIC ([Candida] auris [14]) was 1 µg/mL (≈ 2.29 µM) and the MIC (Cryptococcus neoformans) was no more than 0.125 µg/mL. For the same compound, the MIC (Saccharomyces cerevisiae [15]) was 0.125 µg/mL, the MIC (Candida tropicalis) was 4 µg/mL (≈ 9.14 µM) and the MIC (Candida albicans [16]) was 0.25 µg/mL (≈ 0.571 µM). For the same compound, the MIC (Saccharomyces cerevisiae [17]) was 32 µg/mL, the MIC (Pichia kudriavzevii) was no more than 0.125 µg/mL and the MIC (Candida albicans [18]) was 16 µg/mL (≈ 36.6 µM).
